# In publication PMC12592420, “A mismatch in enzyme-redox partnerships underlies divergent cytochrome P450 activities between human hepatocytes and microsomes” (Communications Biology, 2025):
# Values joined by “and” are separate entries in the source; they are usually repeats but may differ in a detail not shown here. Identical values can stand only once.
# How the values were obtained:
# human hepatocytes (HH) [1] = assay: Savolitinib metabolite (M2, M4) formation in human hepatocytes, with and without CYP inhibitors; assay type: in vitro ADME; settings: savolitinib 1 µM, intact HH
# Protocol: […]120millioncells/[…] […] Authentic standards (M2 and M4) were spiked into hepatocytes (at 1 million cells/mL) and used to construct standard curves. Control marker reactions (final 1 μM for each compound) specific for CYP1A2 (phenacetin to form paracetamol), CYP2C19 (S-mephenytoin to form 4-OH mephenytoin) and CYP2D6 (dextromethorphan to form dextrorphan) were incubated in the presence and absence of the specific inhibitors to confirm the expected enzyme inhibition. […] After a pre-incubation at 37 °C for 5 min, the reaction was started by adding the test compound. […] After centrifugation at 3000 × g for 10 min, 200 μL of the supernatant was mixed with 400 μL of water before analysis for metabolites.
# [2] = Savolitinib metabolite (M2, M4) formation in NADPH-HLM (with BSA or cytosol where stated); assay type: in vitro ADME, human; parameters: [M4] / M2 average / M4 average: unit not given here; settings: for M2 average / M4 average: average of duplicate (Suppl. Fig. 1); for [M2] / [M4]: savolitinib 1 µM
# [3] = Incubations in human liver S9 + NADPH (same donor pool as HLM); assay type: in vitro ADME; settings: S9 + NADPH, savolitinib 1 µM, 1 h (Fig. 6aii)
# [4] = Incubations in HLM + NADPH from the same donor pool as S9; assay type: in vitro ADME, human; settings: HLM (same donors as S9) + NADPH, savolitinib 1 µM, 1 h (Fig. 6aii)
# Excerpt: Liver S9 (lot 1810001, pool of 50, Xenotech) and HLM (pool of 50, lot 1810003, Xenotech) from the same pool of donors were purchased from Xenotech.
# [5] = Metabolism of savolitinib in lysed hepatocytes + NADPH; assay type: in vitro ADME, human; settings: savolitinib 1 µM, HH lysate + NADPH
# Protocol: HH in Leibovitz buffer were centrifuged at 11,250 × g for 5 min to pellet the cells. Taking care not to disturb the pellet, all the media was removed using a pipette. Ice-cold water was added and the mixture vortex-mixed to resuspend the cells and stored at −80 °C for 5 min followed by sonication for 10 min to lyse the cells. The resuspended lysate final volume was equivalent to a final cell concentration of 1 million cells/mL (the same concentration used for intact cells experiments) in […] phosphate buffer pH 7.4 and NADPH (final 1 mM). After pre-incubating for 5 min at 37 °C, the reaction (metabolism of savolitinib) in the lysate was initiated by adding savolitinib (final 1 µM). […] Authentic standards (M2 and M4) were spiked into hepatocyte lysate and used to construct standard curves. The acetonitrile/hepatocyte lysate mixtures were centrifuged at 3000 × g for 10 min and 50 µl of the supernatant was mixed with 300 µl of water and 3 µL was injected into the mass spectrometer for analysis by multiple reaction monitoring.
# human hepatocytes (HH) [6] = assay: Savolitinib metabolite (M2, M4) formation in human hepatocytes, with and without CYP inhibitors; assay type: in vitro ADME; settings: savolitinib 5 µM, 1 h, only peak above this level
# [7] = healthy volunteers, N-demethylation to M2; cited from earlier work
# recombinant CYP3A4-POR = molecular target: T1, recombinant CYP3A4-POR (Homo sapiens, UniProt P08684); assay: Savolitinib incubation with recombinant CYP3A4-POR Supersomes; assay type: in vitro ADME; settings: CYP3A4 (CYP13A4 [sic]), savolitinib 1 µM, 1 h (Fig. 2c)
# T1 construct: purchased 456202
# Protocol: For detailed comparisons between recombinant CYP1A2 and CYP3A4 (Fig. 2B, C), Supersomes were used (CYP1A2, catalogue number 456203, CYP3A4, catalogue number 456202). […] The concentration of savolitinib metabolites M2 and M4 formed were determined from standard curves obtained by spiking the appropriate concentrations of M2 and M4 into recombinant enzymes (in the absence of NADPH) and processing in the same way as the samples.
# in vitro [8] = settings: human, microsomes, pH 7.4, NADPH_HLM_scaled_CLint,u
# Protocol: (§1) Calculation and scaling of CLint,u was done using the equation below and 45 mg of microsomal protein per gram of liver. HLMCLint,u=ln2/x1/t1/2(min)xmLincubation/mgmicrosomalproteinx45mgmicrosomalprotein/gliverx21gliver/kg/Fuinc
# in vitro [9] = settings: human, microsomes, pH 7.4
# Protocol: as §1
# in vitro [10] = settings: human, hepatocytes
# [11] = Free fraction in HLM incubation, equilibrium dialysis; assay type: in vitro ADME, human; settings: fraction unbound, measured or estimated by in silico models of Fuinc
# rat hepatocytes = assay: Free fraction in rat hepatocytes as surrogate for HH, equilibrium dialysis; assay type: in vitro ADME; settings: fraction unbound, measured or estimated by in silico models of Fuinc
# physchem = settings: pH 7.4
# [12] = Intrinsic permeability in Caco-2 cells with efflux inhibited; settings: human, Caco-2
# [13] = 60min, cytosol 0 mg/mL, single measurements (Suppl. Fig. 1)
# [14] = 60min, cytosol 4 mg/mL, single measurements (Suppl. Fig. 1)
# [15] = 60min, cytosol 10 mg/mL, single measurements (Suppl. Fig. 1)
# T1 sequence (P08684 whole entry): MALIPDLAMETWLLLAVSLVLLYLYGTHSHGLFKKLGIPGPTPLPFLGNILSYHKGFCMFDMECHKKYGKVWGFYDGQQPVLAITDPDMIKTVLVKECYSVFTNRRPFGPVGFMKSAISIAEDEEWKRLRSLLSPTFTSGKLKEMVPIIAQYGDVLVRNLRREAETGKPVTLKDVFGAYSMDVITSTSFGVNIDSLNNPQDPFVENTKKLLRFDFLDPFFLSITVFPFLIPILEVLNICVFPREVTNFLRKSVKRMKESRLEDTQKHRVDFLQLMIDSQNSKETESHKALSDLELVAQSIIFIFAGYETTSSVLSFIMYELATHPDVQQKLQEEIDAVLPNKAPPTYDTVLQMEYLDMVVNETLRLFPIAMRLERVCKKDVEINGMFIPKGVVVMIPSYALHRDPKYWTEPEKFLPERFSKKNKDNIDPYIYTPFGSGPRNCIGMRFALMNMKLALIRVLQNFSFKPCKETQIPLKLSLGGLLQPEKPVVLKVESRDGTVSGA
compound,measurement,setting,value
C[C@@H](c1ccc2nccn2c1)n1nnc2ncc(-c3cn[nH]c3)nc21 [Compound M2],[M2],"human hepatocytes (HH) [1]; 5 min (Fig. 2a, 6cii)",1.4 nM and 2.2 nM and 2.25 nM
same,[M2],"human hepatocytes (HH) [1]; 10 min (Fig. 2a, 6cii)",2.85 nM and 3.9 nM and 4.1 nM
same,[M2],"human hepatocytes (HH) [1]; 20 min (Fig. 2a, 6cii)",6.15 nM and 6.85 nM and 7.4 nM
same,[M2],"human hepatocytes (HH) [1]; 40 min (Fig. 2a, 6cii)",12.1 nM and 12.5 nM and 13.35 nM
same,[M2],"human hepatocytes (HH) [1]; 60 min (Fig. 2a, 6cii)",15.75 nM and 16.75 nM and 16.5 nM
same,M2 average,"[2]; 60min, cytosol 0 mg/mL",12.95 and 12.75 and 12.25
same,M2 average,"[2]; 60min, cytosol 4 mg/mL",10.25 and 10.45 and 11.2
same,M2 average,"[2]; 60min, cytosol 10 mg/mL",7.45 and 7.9 and 8.9
same,[M2],[2]; 1 h (Fig. 2e),9.4 nM and 16.7 nM and 13.4 nM
same,[M2],[2]; [13],13.1 and 12.8 and 12.6 and 12.9 and 11.7
same,[M2],[2]; [14],10.4 and 10.1 and 10.6 and 10.3 and 10.9 and 11.5
same,[M2],[2]; [15],7.5 and 7.4 and 8 and 7.8 and 8.5 and 9.3
same,[M2],[3],6.15 nM and 6.3 nM and 4.1 nM
same,[M2],[4],12.05 nM and 12.7 nM and 9.9 nM
same,[M2],[5]; 0 min (Fig. 6cii),0.25 nM and 0.2 nM
same,[M2],[5]; 5 min (Fig. 6cii),1.7 nM and 2.55 nM and 1.8 nM
same,[M2],[5]; 10 min (Fig. 6cii),3.5 nM and 5.15 nM and 3.8 nM
same,[M2],[5]; 20 min (Fig. 6cii),6.7 nM and 10.4 nM and 7.3 nM
same,[M2],[5]; 40 min (Fig. 6cii),11.35 nM and 17.1 nM and 12.4 nM
same,[M2],[5]; 60 min (Fig. 6cii),15.15 nM and 22.05 nM and 17 nM
same,metabolite peak by UV detection,human hepatocytes (HH) [6],greater than 1%
same,"metabolite, share of the dose",[7],60 % of the dose
C[C@@H](c1ccc(N)nc1)n1nnc2ncc(-c3cnn(C)c3)nc21 [Compound M4],[M4] nM formed by recombinant CYPs,recombinant CYP3A4-POR,208.8 nM and 197.55 nM and 216.7 nM
same,M4 average,"[2]; 60min, cytosol 0 mg/mL",45.7 and 50.45 and 48.25
same,M4 average,"[2]; 60min, cytosol 4 mg/mL",17.35 and 19.85 and 21.35
same,M4 average,"[2]; 60min, cytosol 10 mg/mL",7.4 and 8.2 and 10.05
same,[M4],[2]; [13],45.1 and 46.3 and 50.7 and 50.2 and 47.8 and 48.7
same,[M4],[2]; [14],17.9 and 16.8 and 19.5 and 20.2 and 21.9 and 20.8
same,[M4],[2]; [15],7.5 and 7.3 and 8.2 and 10.2 and 9.9
same,[M4],[4],59.25 nM and 71.3 nM and 48.9 nM
same,[M4],[5]; 0 min (Fig. 6cii),2.8 nM and 3 nM and 2.75 nM
same,[M4],[5]; 5 min (Fig. 6cii),3.1 nM and 3.9 nM and 3.3 nM
same,[M4],[5]; 10 min (Fig. 6cii),4.2 nM and 5.25 nM and 4 nM
same,[M4],[5]; 20 min (Fig. 6cii),4.6 nM and 6.95 nM and 4.95 nM
same,[M4],[5]; 40 min (Fig. 6cii),6.1 nM and 9.2 nM and 6.8 nM
same,[M4],[5]; 60 min (Fig. 6cii),7.5 nM and 10.55 nM and 8.1 nM
CC(=O)CC(c1ccccc1)c1c(O)c2ccccc2oc1=O (centres unmarked) [Warfarin],CLint scaled at 1 µM,in vitro [8],4.16 mL/min/kg
same,CLint scaled at 1 µM,in vitro [9],2.83 mL/min/kg
same,hepatocyte CLint at 1 µM,in vitro [10]; both,2.69 µL/min/1e6 cells
same,CLint scaled at 1 µM,"in vitro [10]; HH_scaled_CLint,u",8.57 mL/min/kg
same,fu_HLM,[11],1
same,fu_ratHH,rat hepatocytes,0.791
same,logD,physchem,0.902
same,"Papp at 2 h, 10 µM",[12],60.7 ×10⁻⁶ cm/s
